Test results as given in patent US6866872B1, “Withania somnifera Dunal extracts for increasing male sperm count” (Nippon Shinyaku Co., Ltd., priority 1999, dated 2005).

Tests used:
[1] = tested on: rats with the genital organs impaired by ethynylestradiol; conditions: rat, in vivo
Procedure: Using rats with the genital organs impaired by ethynylestradiol as in Test Example 2, the sperm count and motile sperm rate were investigated.
From the right epididymis, the caudal epididymis was excised and weighed with Sartorius electronic balance LC620-S. The caudal epididymis was placed in a sperm collection vial containing 5 mL of BSA-Hanks solution and cut 3 times to cause the sperm to swim out. A 0.05 mL portion of the sperm fluid was sampled and diluted with 0.95 mL of BSA-Hanks solution for use as a diluted sperm fluid. The number of non-motile sperms in the diluted sperm fluid was determined with Thoma's hemocytometer. After this counting of non-motile sperms, the vessel containing the diluted sperm fluid was immersed in hot water and, after return to room temperature, the sperms were counted with the hemocytometer. […] Using the measured values, the motile sperm rate was calculated by means of the following equation [1]. Motile sperm rate (%)=(number of sperms−number of non-motile sperms)/number of sperms×100 [1] (2) Method for Determination of Sperm Count
The caudal epididymis in the sperm collection vial used in the above procedure (1) was further cut to release sperms and the fluid in the vial was filtered through a nylon-mesh sieve. The stock filtrate, 0.1 mL, was diluted with 1.9 mL of formalinized saline and the number of sperms was determined with Thoma's hemocytometer. When the sperm population in the sperm sample was considered to be too small (low turbidity), the stock sperm fluid was not diluted but the vessel was directly immersed in hot water and, after reutrn to room temperature, the number of sperms was determined. Moreover, the number of sperms (sperm count) per caudal epididymis was calculated using the number of sperms determined and the dilution factor by means of the equation given below, with the value per caudal epididymis unit weight (g) being taken as the sperm count/caudal epididymis and the value per epididymis as the sperm count/epididymis.
Sperm count=measured number of sperms×dilution factor Number of sperms/caudal epididymis=number of sperms determined×dilution factor/weight of the caudal epididymis epididymis (g) Number of sperms/epididymis=(number of sperms/caudal epididymis)×weight of epididymis (g)

SD rats = assay: Test Example 1: genital organ weights after ethynylestradiol dosing for 2 weeks; format: in vivo, rat; conditions: ethynylestradiol 3 mg/kg orally once daily for 2 weeks, n = 8
Procedure: SD rats aged 11 weeks (in groups of 8) were orally dosed with 3 mg/kg of the endocrine disturbing chemical ethynylestradiol suspended in 0.5% sodium carboxymethylcellulose (CMC) solution (ethynylestradiol 0.6 mg/mL) or, as control, 5 mL/kg of 0.5% CMC solution once daily in the morning for 2 weeks, and after the administration course, the testis, epididymis, prostate and seminal vesicle were respectively weighed.
Rat husbandry conditions: room temperature 21˜25° C., humidity 45˜60%, artificial lighting 12 hrs (7:00 a.m.˜7:00 p.m.), ventillation frequency 15/hr, solid food (CE-2, CLEA Japan Inc.) and drinking water ad libitum.

Slc:SD rats = assay: Test Example 2: genital organ weights 1 week after ethynylestradiol dosing for 10 days; format: in vivo, rat; conditions: ethynylestradiol 3 mg/kg orally once daily for 10 days, weighed 1 week after the course, n = 10
Procedure: Slc:SD rats aged 10 weeks (in groups of 10) were orally dosed with 3 mg/kg of the endocrine disturbing chemical ethynylestradiol suspended in 0.5% sodium carboxymethylcellulose (CMC) solution (ethynylestradiol 0.3 mg/mL) or, as control, 10 mL/kg of 0.5% CMC solution once daily in the morning for 10 days, and at 1 week after the administration course, the testis, epididymis, prostate and seminal vesicle were respectively weighed.
Rat husbandry conditions: room temperature 21˜25° C., humidity 45˜60%, artificial lighting 12 hrs (7:00 a.m.˜7:00 p.m.), ventilation frequency 15/hr, solid food (CE-2, CLEA Japan Inc.) and drinking water ad libitum.

Compound: C#C[C@]1(O)CC[C@H]2[C@@H]3CCc4cc(O)ccc4[C@H]3CC[C@@]21C [Ethynylestradiol, ethynylestradiol]
- Caudal epididymis (weight, g) [1]: 0.076 g
- Motile sperm rate [1]: 40.6 ± %
- Sperm count [1]: 13.0 ± x10^6
- Sperm count/caudal epididymis [1]: 160.2 ± x10^6
- Sperm count/epididymis [1]: 88.8 ± x10^6
- Epididymis weight (SD rats): 118 mg/100 g body weight
- Prostate weight (SD rats): 77.4 mg/100 g body weight
- Seminal vesicle weight (SD rats): 88.1 mg/100 g body weight
- Testis weight (SD rats): 705 mg/100 g body weight
- Epididymis weight (Slc:SD rats): 154.5 ± mg/100 gBW
- Prostate weight (Slc:SD rats): 102.3 ± mg/100 gBW
- Seminal vesicle weight (Slc:SD rats): 170.0 ± mg/100 gBW
- Testis weight (Slc:SD rats): 731.3 ± mg/100 gBW
